The test system of test [1] is influenza A virus (A/PR/8/34). As to the kind of experiment: cytopathic effect (CPE) assay, MDCK cell protection by ATP detection. It is filed as cell-based. Conditions: Influenza A virus; Table 2; mean IC50; MDCK cells, A/PR/8/34, 72 hours, 50% cell protection; read-out: Flu MDCK IC50. (In general: Protection from cytopathic effect is a common read-out in antiviral testing.)

In test [2] the test system is Influenza virus, strain A/PR/8/34. Nature of the test: microbe, parasite or virus in culture. It counts as cell-based.
Setting [3] is: unidentified influenza virus, PR/8, read-out: bDNA EC50 (uM).
The mark [4] stands for this setting: read-out: bDNA EC50, Table 2, mean EC50, viral RNA level 50% of control wells.

Structures are written as SMILES. Like-named read-outs stand apart in the source and are kept apart here.

Take `O=C(O)[C@H]1CCCC2(CCCC2)[C@H]1Nc1nc(-c2n[nH]c3ncc(F)cc23)ncc1F` [Compound I-39, (6S,7S)-6-((5-fluoro-2-(5-fluoro-1H-pyrazolo[3,4-b]pyridin-3-yl)pyrimidin-4-yl)amino)spiro[4.5]decane-7-carboxylic acid]: the IC50 in test [1] was < 3.3 µM. Further, in test [2] (setting [3]), the EC50 is < 3.3 µM.

For `O=C(O)[C@@H]1CCCC2(CCCC2)[C@@H]1Nc1nc(-c2n[nH]c3ncc(F)cc23)ncc1F` [Compound I-40, (6R,7R)-6-((5-fluoro-2-(5-fluoro-1H-pyrazolo[3,4-b]pyridin-3-yl)-pyrimidin-4-yl)amino)spiro[4.5]decane-7-carboxylic acid], in test [1], the 50% inhibitory concentration (IC50) was < 3.3 µM. The EC50 in test [2] (setting [4]) was < 3.3 µM.

As to `O=C(N[C@@H]1CCC[C@H](Nc2nc(-c3n[nH]c4ncc(F)cc34)ncc2F)C1)c1ccsc1` [Compound I-41, N-((1R,3S)-3-((5-fluoro-2-(5-fluoro-1H-pyrazolo[3,4-b]pyridin-3-yl)pyrimidin-4-yl)amino)cyclohexyl)thiophene-3-carboxamide], the IC50 in test [1] is < 3.3 µM. Besides, in test [2] (setting [3]), the half-maximal effective concentration (EC50) was < 3.3 µM.

Regarding `O=C(O)[C@H]1C2CCC(CC2)[C@@H]1Nc1nc(-c2n[nH]c3ncc(F)cc23)ncc1F` [Compound I-44], in test [1], the IC50 is < 3.3 µM. Also, the EC50 in test [2] (setting [4]) was < 3.3 µM.

Regarding `O=C(O)[C@H]1CCCC2(CCCC2)[C@@H]1Nc1nc(-c2n[nH]c3ncc(F)cc23)ncc1F` [Compound I-45], in test [1], the IC50 is < 3.3 µM. For the same compound, the EC50 in test [2] (setting [3]) was < 3.3 µM.

As to `O=C(O)[C@@H]1CCCC2(CCCC2)[C@H]1Nc1nc(-c2n[nH]c3ncc(F)cc23)ncc1F` [Compound I-46], the IC50 in test [1] is < 3.3 µM. Further, the EC50 in test [2] (setting [3]) was > 3.3 µM.

As to `O=C(N[C@@H]1CCC[C@H](Nc2nc(-c3n[nH]c4ncc(F)cc34)ncc2F)C1)c1csc(Cl)c1` [Compound I-47, 5-chloro-N-((1R,3S)-3-((5-fluoro-2-(5-fluoro-1H-pyrazolo[3,4-b]pyridin-3-yl)pyrimidin-4-yl)amino)cyclohexyl)thiophene-3-carboxamide], in test [1], the IC50 was < 3.3 µM. Besides, the EC50 in test [2] (setting [3]) is < 3.3 µM.

Consider `O=C(O)C[C@H]1C2CCC(CC2)[C@@H]1Nc1nc(-c2n[nH]c3ncc(F)cc23)ncc1F` [Compound I-48, 2-((2S,3S)-3-((5-fluoro-2-(5-fluoro-1H-pyrazolo[3,4-b]pyridin-3-yl)pyrimidin-4-yl)amino)bicyclo[2.2.2]octan-2-yl)acetic acid], for which the IC50 in test [1] was < 3.3 µM. Further, in test [2] (setting [3]), the EC50 is < 3.3 µM.

The term IC50 denotes the midpoint of a concentration-inhibition curve. Broadly, the EC50 is the midpoint of the concentration-response curve.

Source of the values: patent US8871774B2, “Inhibitors of influenza viruses replication” (priority 2010, dated 2014).
